{"source": "patent US20250213700A1", "about": "“COMPOUNDS, COMPOSITIONS, AND METHODS FOR CELL-SPECIFIC PHARMACOLOGY” (Duke University, priority 2022, published 2025)", "test_system": "AMPAR", "assay": "whole-mount retina, AMPAR-mediated evoked EPSC in retinal ganglion cells", "assay_type": "cell-based, mouse", "settings": "300 nM, 15 min", "description": "(FIG. 6A) Viral strategy (top panel). […] Experimental overview (second panel from the top to bottom panel). Top: whole retina; synaptic current is evoked (stim) and recorded (voltage-clamp of dTomato+ RGC), with ionic and pharmaceutical conditions chosen to isolate the AMPAR or GABAAR. A 10 min baseline is followed by 15 min application of 300 nM Rx^DART.2+30 nM Alexa^647.1DART.2. […] (FIG. 6B) CMPDA.2^DART.2 (left). Electropositive spacer (PDB 3RNN). […] AMPAR structural model (middle) (composite of PDB 5WEO, 3RNN, and 1FTL). Cylinder depicts cell membrane. […] YM90K.1^DART.2 (right). Structural model (PDB 1FTL). […] (FIG. 6C) diazepam.1^DART.2 (left). Structural model (PDB 6HUP). […] GABAAR (middle) structural model (composite of PDB 6HUP and 6HUK). […] Structural model (PDB 6HUK).\nPreparation of Retina: Mice were intravitreal injected AAV10 HaloTag™-dTomato to eyes. After 8-12 weeks, the mice killed by cervical dislocation. Both eyes were removed and dissected under a stereo-microscope. Retinas were isolated from the eyecups and placed in oxygenated (95% O2/5% CO2) cold-Ames medium (Sigma-Aldrich), supplemented with 21 mM NaHCO3. After the vitreous body was removed, a retina was cut into 3 pieces, leaving each retina piece attached to a filter paper with 2 mm hole by retina ganglion-cell-side-down. The pieces of retina were stored in bubbled Ames solution at room temperature, then transferred to recording chamber with retina ganglion-cell-side-up for recording.\nWhole-cell patch-clamp recording: The brain slices or retinas were perfused with bubbled aCSF at 29-30° C. with a 2 ml/min flow rate. Recordings were made by whole cell patch recording techniques using a Multiclamp 700B amplifier (Molecular Devices, Axon Instruments Inc., Union City, CA). The signals were filtered at 10 KHz and acquired using Digitate 1440A and pClamp 10.7 (Molecular Devices). The recording pipettes (4 MΩ-6 MΩ) were filled with internal solutions. For GABAA receptor-mediated evoked inhibitory postsynaptic currents ([…]) recording, the pipettes filled with Cesium Chloride-based internal solution (in mM) 135 CsCl, 2 MgCl2, 0.5 EGTA, 10 HEPES, 4 Mg-ATP, 0.5 Na-GTP, 10 Na2-phosphocreatine, and QX314 (lidocaine N-ethyl bromide), pH adjusted to 7.3 with CsOH (290 mosm). For AMPA-receptor mediated evoked excitatory postsynaptic currents (eEPSCs) recording, the pipette solution contained (in mM) 130 CsMeS, 1 MgCl2, 0.5 EGTA, 10 HEPES, 4 Mg-ATP, 0.5 Na-GTP, 10 Na2-phosphocreatine, and 4 QX314, pH adjusted to 7.3 with CsOH (290 mosm). For experiment of brain slices and retinas, the eIPSCs or eEPSCs were elicited by electrical stimuli at 0.067 Hz in 0.3-ms duration and 150-300-ρA (60-70% maximum responses) stimulation intensity at a holding potential of −70 mV. The stimulating electrode was placed within 60-100 μm from the recording neuron under voltage-clamp mode. GABA-receptor mediated eIPSCs were isolated in the presence of DNQX ([…] AMPAR antagonist) and AP-V ([…] antagonist) in the bath solution. For AMPA-receptor mediated eEPSCs, added picrotoxin ([…], GABAAR antagonist) and AP-V ([…]) to the bath solution."}
{"smiles": "COc1cc(CCCCl)ccc1CCOCCNC(=O)c1ccc(CNC(=O)CCOCCOCCOCCOCCOCCOCCOCCOCCOCCOCCOCCOCCOCCOCCOCCOCCOCCOCCOCCOCCOCCOCCOCCOCCOCCOCCOCCOCCOCCOCCOCCOCCOCCOCCOCCOCCn2cc(COCCOCCOCCOCCOCCOCCNC(=O)CCCn3c(=O)c(=O)[nH]c4cc([N+](=O)[O-])c(-n5ccnc5)cc43)nn2)cc1", "note": "[YM90K.1DART.2]", "values": [{"measurement": "AMPAR evoked EPSC block, +HTP cells", "value": "blocked the AMPAR-mediated EPSC"}, {"measurement": "AMPAR evoked EPSC block, +HTP cells", "setting": "listed as YM90K.1^DART.2", "value": "blocked on ^+HTP cells"}]}
